Laboratory results reported in ChEMBL document CHEMBL1201862, “PubChem BioAssay data set” (2004).
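96-well plates; 48 h exposure; 5 concentrations. Endpoints by linear interpolation between flanking doses. Not reached: highest tested concentration assigned. At the GI50, growth is halved.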 Calls of active or inactive are those of the source. Cut-off read from the data, not from the text of the source: active = GI50 up to about 1.1 µM and inactive = higher.

How the values were obtained:
Assay in all cases: NCI anticancer screen, dose series, 48 h
[1] = test system: A498
[2] = test system: SNB-75
[3] = test system: NCI-H460
[4] = test system: SR
[5] = test system: UACC-62
[6] = test system: MCF7
[7] = test system: SF-539
[8] = test system: HCC 2998
[9] = test system: IGROV-1
[10] = test system: HL-60
[11] = test system: Hs-578T
[12] = test system: T47D
[13] = test system: NCI-H23
[14] = test system: HCT-15
[15] = test system: MDA-N
[16] = test system: SK-MEL-28
[17] = test system: MDA-MB-231
[18] = test system: UO-31
[19] = test system: SK-MEL-5
[20] = test system: BT-549
[21] = test system: KM12
[22] = test system: COLO 205
[23] = test system: UACC-257
[24] = test system: EKVX
[25] = test system: SW-620
[26] = test system: NCI-H522
[27] = test system: K562
[28] = test system: HOP-62
[29] = test system: SF-268
[30] = test system: PC-3
[31] = test system: SN12C
[32] = test system: TK-10
[33] = test system: SK-OV-3
[34] = test system: LOX IMVI
[35] = test system: DU-145
[36] = test system: SNB-19
[37] = test system: Malme-3M
[38] = test system: M14
[39] = test system: MOLT-4
[40] = test system: CCRF-CEM
[41] = test system: MDA-MB-435
[42] = test system: HCT-116
[43] = test system: 786-0
[44] = test system: A549
[45] = test system: RPMI-8226
[46] = test system: SF-295
[47] = test system: CAKI-1
[48] = test system: ACHN
[49] = test system: OVCAR-8
[50] = test system: HT-29
[51] = test system: NCI-H226
[52] = test system: SK-MEL-2
[53] = test system: OVCAR-5
[54] = test system: OVCAR-4
[55] = test system: OVCAR-3
[56] = test system: U-251
[57] = test system: RXF 393
[58] = test system: NCI/ADR-RES
[59] = test system: HOP-92

C=CCOCn1cc(F)c(=O)[nH]c1=O
GI50 [1]: > 100 µM (inactive) | GI50 [2]: 31.6 µM (inactive) | GI50 [3]: > 100 µM (inactive) | GI50 [4]: > 100 µM (inactive) | GI50 [5]: > 100 µM (inactive) | GI50 [6]: > 100 µM (inactive) | GI50 [7]: > 100 µM (inactive) | GI50 [8]: > 100 µM (inactive) | GI50 [9]: > 100 µM (inactive) | GI50 [10]: > 100 µM (inactive) | GI50 [11]: > 100 µM (inactive) | GI50 [12]: > 100 µM (inactive) | GI50 [13]: > 100 µM (inactive) | GI50 [14]: > 100 µM | GI50 [15]: > 100 µM (inactive) | GI50 [16]: > 100 µM (inactive) | GI50 [17]: > 100 µM (inactive) | GI50 [18]: > 100 µM (inactive) | GI50 [19]: > 100 µM (inactive) | GI50 [20]: > 100 µM (inactive) | GI50 [21]: > 100 µM (inactive) | GI50 [22]: > 100 µM (inactive) | GI50 [23]: > 100 µM (inactive) | GI50 [24]: > 100 µM (inactive) | GI50 [25]: > 100 µM (inactive) | GI50 [26]: > 100 µM (inactive) | GI50 [27]: > 100 µM (inactive) | GI50 [28]: > 100 µM (inactive) | GI50 [29]: > 100 µM (inactive) | GI50 [30]: > 100 µM (inactive) | GI50 [31]: > 100 µM (inactive) | GI50 [32]: > 100 µM (inactive) | GI50 [33]: > 100 µM (inactive) | GI50 [34]: > 100 µM (inactive) | GI50 [35]: > 100 µM (inactive) | GI50 [36]: > 100 µM (inactive) | GI50 [37]: > 100 µM (inactive) | GI50 [38]: > 100 µM (inactive) | GI50 [39]: > 100 µM (inactive) | GI50 [40]: > 100 µM (inactive) | GI50 [41]: > 100 µM (inactive) | GI50 [42]: > 100 µM (inactive) | GI50 [43]: > 100 µM (inactive) | GI50 [44]: > 100 µM (inactive) | GI50 [45]: > 100 µM (inactive) | GI50 [46]: > 100 µM (inactive) | GI50 [47]: > 100 µM (inactive) | GI50 [48]: > 100 µM (inactive) | GI50 [49]: > 100 µM (inactive) | GI50 [50]: > 100 µM (inactive) | GI50 [51]: > 100 µM (inactive)

COc1cc(-c2c3c([nH]c(=O)c2C#N)-c2cc([N+](=O)[O-])ccc2CCC3)cc(OC)c1OC
GI50 [1]: 14.2 µM (inactive) | GI50 [2]: 21.7 µM (inactive) | GI50 [3]: 16.8 µM (inactive) | GI50 [5]: 13.3 µM (inactive) | GI50 [6]: 17.4 µM (inactive) | GI50 [7]: 24.3 µM (inactive) | GI50 [8]: 17.2 µM (inactive) | GI50 [9]: 33.1 µM (inactive) | GI50 [10]: 21.4 µM (inactive) | GI50 [11]: 13.3 µM (inactive) | GI50 [52]: 17.9 µM (inactive) | GI50 [12]: 14.1 µM (inactive) | GI50 [13]: 17.4 µM (inactive) | GI50 [14]: 26.4 µM | GI50 [15]: 21.1 µM (inactive) | GI50 [16]: 43.5 µM (inactive) | GI50 [17]: 19.9 µM (inactive) | GI50 [18]: 19 µM (inactive) | GI50 [19]: 12.9 µM (inactive) | GI50 [20]: 17.5 µM (inactive) | GI50 [21]: 20.2 µM (inactive) | GI50 [53]: 23.7 µM (inactive) | GI50 [22]: 22 µM (inactive) | GI50 [23]: 26.9 µM (inactive) | GI50 [24]: 24.4 µM (inactive) | GI50 [25]: 40.5 µM (inactive) | GI50 [26]: 15.6 µM (inactive) | GI50 [27]: 18.9 µM (inactive) | GI50 [54]: 21.5 µM (inactive) | GI50 [28]: 19.9 µM (inactive) | GI50 [29]: 24.2 µM (inactive) | GI50 [30]: 20.2 µM (inactive) | GI50 [31]: 16.2 µM (inactive) | GI50 [32]: 34.8 µM (inactive) | GI50 [55]: 15.5 µM (inactive) | GI50 [33]: 15.5 µM (inactive) | GI50 [56]: 23.6 µM (inactive) | GI50 [34]: 15.1 µM (inactive) | GI50 [35]: 25.8 µM (inactive) | GI50 [57]: 22.1 µM (inactive) | GI50 [36]: 30.8 µM (inactive) | GI50 [37]: 22.8 µM (inactive) | GI50 [38]: 35.1 µM (inactive) | GI50 [39]: 16 µM (inactive) | GI50 [40]: 21.7 µM (inactive) | GI50 [41]: 25.9 µM (inactive) | GI50 [42]: 18.8 µM (inactive) | GI50 [43]: 24.7 µM (inactive) | GI50 [44]: 23.8 µM (inactive) | GI50 [58]: 42.4 µM (inactive) | GI50 [45]: 9.08 µM (inactive) | GI50 [46]: 16.1 µM (inactive) | GI50 [47]: 26.9 µM (inactive) | GI50 [59]: 25.4 µM (inactive) | GI50 [48]: 21 µM (inactive) | GI50 [49]: 17.8 µM (inactive) | GI50 [50]: 37.5 µM (inactive) | GI50 [51]: 22.7 µM (inactive)
